The values that follow come from ChEMBL document CHEMBL1142710, “3D-QSAR comparative molecular field analysis on opioid receptor antagonists: pooling data from different studies” (J Med Chem, 2005).

One may read the Ki as a dissociation constant, usually derived from enzyme kinetics or from competition with a known ligand.

Experiment [1] concerns the target T1, Mu-type opioid receptor (Rattus norvegicus, UniProt P33535). Put plainly: Binding affinity against Opioid receptor mu 1 from rat brain membranes using [3H]DAMGO.
For experiment [2], the target named is T2, Kappa-type opioid receptor (Cavia porcellus, UniProt P41144). Description: Binding affinity against Opioid receptor kappa 1 from guinea pig brain membranes using [3H]U-69593.
Experiment [3] has as its target T3, Delta-type opioid receptor (Rattus norvegicus, UniProt P33533). Put plainly: Binding affinity against Opioid receptor delta 1 from rat brain membranes using [3H]DADLE.
Experiment [4] concerns the target T3, Delta-type opioid receptor. Put plainly: Affinity against opioid receptor delta 1 in rat brain membranes determined in a competitive binding assay using [3H]DADLE as competitive ligand (Compound 62). Type of experiment: cell membranes.
For experiment [5], the target named is T2, Kappa-type opioid receptor. Description: Affinity against opioid receptor kappa 1 in guinea pig brain membranes determined in a competitive binding assay using [3H]U-69593 as competitive ligand (Compound 62). The format is cell membranes, Membrane.
Experiment [6] has as its target T1, Mu-type opioid receptor. Put plainly: Affinity against opioid receptor mu 1 in rat brain membranes determined in a competitive binding assay using [3H]DAMGO as competitive ligand (Compound 62). The format is cell membranes.

On to `CCCCOc1cccc2c1C13CCN(CC4CC4)C(C2)[C@]1(OCCCc1ccccc1)CCC(=O)C3` (some centres not stated), for which the Ki on Mu-type opioid receptor [1] is 14.8 nM; in experiment [2], 151 nM; in experiment [3], 234 nM.
On to `C=C(C)CN1CCC23c4c5ccc(O)c4O[C@H]2C(=O)C2(CCc4ccccc42)C[C@@]3(O)C1C5` (some centres not stated), for which the Ki at Mu-type opioid receptor [1] was 2000 nM; in experiment [2] it was 1000 nM; in experiment [3], 40.7 nM.
Consider `Oc1ccc2c3c1O[C@H]1c4ncc(-c5ccccc5)cc4C[C@@]4(O)C(C2)N(CC2CC2)CCC314` (some centres not stated), for which the Ki on Mu-type opioid receptor [1] was 13.5 nM; in experiment [2], 17.8 nM; in experiment [3], 0.871 nM.
For `CN1CCC23c4c5ccc(O)c4O[C@H]2c2ncc(-c4ccc(Br)cc4)cc2C[C@@]3(O)C1C5` (some centres not stated), in that order: 195 nM, 437 nM and 3.98 nM.
For `Oc1ccc2c3c1O[C@H]1c4nccc(-c5ccccc5)c4C[C@@]4(O)C(C2)N(CC2CC2)CCC314` (some centres not stated), in that order: 191 nM, 263 nM and 72.4 nM.
For `CN1CCC23c4c5ccc(O)c4O[C@H]2c2ncc(-c4ccc(Cl)cc4)cc2C[C@@]3(O)C1C5` (some centres not stated), in that order: 229 nM, 468 nM and 3.89 nM.
Take `CCCCCCOc1cccc2c1C13CCN(CC4CC4)C(C2)[C@]1(OC)CCC(=O)C3` (some centres not stated): the inhibition constant Ki at Mu-type opioid receptor [1] was 44.7 nM; in experiment [2] it was 437 nM; in experiment [3] it was 1170 nM.
For the compound `C=C(C)CN1CCC23c4c5ccc(O)c4O[C@H]2C(=O)/C(=C\c2ccccc2)C[C@@]3(O)C1C5` (some centres not stated), the Ki at Mu-type opioid receptor [1] was 4470 nM; in experiment [2], 4470 nM; in experiment [3] it was 209 nM.
`C=C(N)NCCCC(=O)NC1CC2CC(c3cccc(O)c3)(C1)C(C)CN2CCCc1ccccc1` (configuration not stated): the Ki at Mu-type opioid receptor [1] was 87.1 nM; in experiment [2], 13.2 nM; in experiment [3], 1740 nM.
For the compound `C=CCN1CCC23c4c5ccc(O)c4O[C@@]2(C)c2[nH]c4ccccc4c2C[C@@]3(OCC)C1C5` (some centres not stated), the inhibition constant Ki is 661 nM at Mu-type opioid receptor [1], 759 nM in experiment [2] and 10.7 nM in experiment [3].
As for `CO[C@@]12CCC(=O)CC13CCN(CC1CC1)C2Cc1cccc(OC/C=C/c2ccccc2)c13` (some centres not stated), the Ki on Mu-type opioid receptor [1] was 28.2 nM; in experiment [2], 363 nM; in experiment [3], 832 nM.
With `CC1CN(CCCc2ccccc2)C2CC(N)CC1(c1cccc(O)c1)C2` (configuration not stated), the inhibitory constant (Ki) is 3.31 nM at Mu-type opioid receptor [1], 123 nM in experiment [2] and 14.8 nM in experiment [3].
The matching figures for `CC1CN(CCCc2ccccc2)C2CC(NC(=O)CCCN(C)C)CC1(c1cccc(O)c1)C2` (configuration not stated): 57.5 nM, 12 nM and 1450 nM.
`Oc1ccc2c3c1O[C@H]1c4ncc(-c5ccc(Cl)cc5)cc4C[C@@]4(O)C(C2)N(CC2CC2)CCC314` (some centres not stated): the figures for the Ki (on Mu-type opioid receptor [1]; in experiment [2]; in experiment [3]) were 51.3 nM, 20 nM and 2.19 nM, respectively.
The matching figures for `CN1CCC23c4c5ccc(O)c4O[C@H]2c2ncc(-c4ccccc4)cc2C[C@H]3C1C5` (some centres not stated): 24 nM, 81.3 nM and 4.9 nM.
`Oc1ccc2c3c1O[C@H]1c4ncncc4C[C@@]4(O)C(C2)N(CC2CC2)CCC314` (some centres not stated): the inhibition constant (Ki) was 4.17 nM at Mu-type opioid receptor [1], 6.31 nM in experiment [2] and 3.47 nM in experiment [3].
The matching figures for `Oc1ccc2c3c1O[C@H]1c4ncccc4C[C@@]4(O)C(C2)N(CC2CC2)CCC314` (some centres not stated): 1.51 nM, 8.71 nM and 0.776 nM.
Turning to `CN1CCC23c4c5ccc(O)c4O[C@H]2c2ncc(-c4ccc(Cl)c(Cl)c4)cc2C[C@H]3C1C5` (some centres not stated), the inhibitory constant (Ki) was 93.3 nM on Mu-type opioid receptor [1], 275 nM in experiment [2] and 3.72 nM in experiment [3].
For `CN1CCC23c4c5ccc(O)c4O[C@H]2c2ncc(-c4ccc(Cl)cc4)cc2C[C@H]3C1C5` (some centres not stated), in that order: 148 nM, 77.6 nM and 4.37 nM.
`C=C(C)CN1CCC23c4c5ccc(O)c4O[C@H]2c2[nH]ncc2C[C@@]3(O)C1C5` (some centres not stated): the values for the inhibitory constant (Ki) (at Mu-type opioid receptor [1]; in experiment [2]; in experiment [3]) were 141 nM, 38 nM and 39.8 nM, respectively.
`C=C(C)CN1CCC23c4c5ccc(O)c4O[C@H]2c2oc4ccccc4c2C[C@@]3(O)C1C5` (some centres not stated): the inhibition constant Ki at Mu-type opioid receptor [1] was 1290 nM; in experiment [2], 575 nM; in experiment [3] it was 8.13 nM.
For `Oc1ccc2c3c1O[C@H]1c4nc(-c5ccccc5)ncc4C[C@@]4(O)C(C2)N(CC2CC2)CCC314` (some centres not stated), in that order: 21.9 nM, 11 nM and 15.8 nM.
As to `Cc1ncc2c(n1)[C@@H]1Oc3c(O)ccc4c3C13CCN(CC1CC1)C(C4)[C@]3(O)C2` (some centres not stated), the Ki at Mu-type opioid receptor [1] is 6.03 nM; in experiment [2], 25.1 nM; in experiment [3] it was 22.9 nM.
The matching figures for `CN1CCC23c4c5ccc(O)c4O[C@H]2c2ncc(-c4ccc(Cl)cc4Cl)cc2C[C@H]3C1C5` (some centres not stated): 97.7 nM, 407 nM and 1.1 nM.
As for `Cc1cc(-c2ccccc2)c2c(n1)[C@@H]1Oc3c(O)ccc4c3C13CCN(CC1CC1)C(C4)[C@]3(O)C2` (some centres not stated), the inhibitory constant (Ki) at Mu-type opioid receptor [1] was 155 nM; in experiment [2] it was 676 nM; in experiment [3], 126 nM.
For `Oc1ccc2c3c1O[C@H]1c4ncc(-c5ccc(Cl)cc5)cc4C[C@H]4C(C2)N(CC2CC2)CCC314` (some centres not stated), in that order: 61.7 nM, 6.03 nM and 2.57 nM.
The matching figures for `C=CCN1CCC23c4c5ccc(O)c4O[C@H]2c2ncc(-c4ccc(Cl)cc4)cc2C[C@@]3(O)C1C5` (some centres not stated): 468 nM, 75.9 nM and 8.13 nM.
In the case of `Oc1ccc2c3c1O[C@H]1c4nc(-c5ccccc5)ccc4C[C@@]4(O)C(C2)N(CC2CC2)CCC314` (some centres not stated), the Ki at Mu-type opioid receptor [1] is 11 nM; in experiment [2] it was 18.2 nM; in experiment [3], 1.78 nM.
For `COc1cccc2c1C13CCN(CC4CC4)C(C2)[C@]1(OCCCc1ccccc1)CCC(=O)C3` (some centres not stated), the inhibition constant (Ki) on Mu-type opioid receptor [1] was 0.339 nM; in experiment [2], 7.41 nM; in experiment [3], 17 nM.
For `CO[C@@]12CCC(=O)CC13CCN(CC1CC1)C2Cc1cccc(OCCCc2ccccc2)c13` (some centres not stated), the Ki on Mu-type opioid receptor [1] was 43.7 nM; in experiment [2], 209 nM; in experiment [3] it was 1410 nM.
`COc1ccc2c(c1O)[C@]13CCN(CC4CC4)C(C2)[C@]1(O)CC1c2ccccc2NC1C3` (some centres not stated): the results for the Ki (at Mu-type opioid receptor [1]; in experiment [2]; in experiment [3]) were 1860 nM, 3160 nM and 21.9 nM, respectively.
For `O=C1CC[C@@]2(OCCCc3ccccc3)C3Cc4cccc(O)c4C2(CCN3CC2CC2)C1` (some centres not stated), in that order: 0.398 nM, 5.89 nM and 5.01 nM.
The matching figures for `Cc1nc(-c2ccccc2)c2c(n1)[C@@H]1Oc3c(O)ccc4c3C13CCN(CC1CC1)C(C4)[C@]3(O)C2` (some centres not stated): 251 nM, 562 nM and 324 nM.
Take `O=C1CC[C@@]2(OCCCc3ccccc3)C3Cc4cccc5c4C2(CCN3CC2CC2)C1O5` (some centres not stated): the results for the inhibitory constant (Ki) (on Mu-type opioid receptor [1]; in experiment [2]; in experiment [3]) were 0.832 nM, 22.9 nM and 45.7 nM, respectively.
As to `CO[C@@]12CCC(=O)CC13CCN(CC1CC1)C2Cc1cccc(OCc2ccccc2)c13` (some centres not stated), the Ki on Mu-type opioid receptor [1] was 11.5 nM; in experiment [2], 56.2 nM; in experiment [3], 214 nM.
With `CN1CCC23c4c5ccc(O)c4O[C@H]2c2ncc(-c4ccc(Br)cc4)cc2C[C@H]3C1C5` (some centres not stated), the inhibitory constant (Ki) at Mu-type opioid receptor [1] is 200 nM; in experiment [2] it was 91.2 nM; in experiment [3] it was 5.01 nM.
For `C=C(N)NCCC(=O)NC1CC2CC(c3cccc(O)c3)(C1)C(C)CN2CCCc1ccccc1` (configuration not stated), in that order: 5.25 nM, 23.4 nM and 56.2 nM.
With `CN1CCC23c4c5ccc(O)c4O[C@H]2c2ncc(-c4ccccc4)cc2C[C@@]3(O)C1C5` (some centres not stated), the Ki is 25.7 nM on Mu-type opioid receptor [1], 363 nM in experiment [2] and 2.88 nM in experiment [3].
For `C=C(C)CN1CC[C@]23c4c5ccc(O)c4O[C@@H]2c2[nH]c4ccccc4c2C[C@@]3(O)[C@H]1C5`, the Ki was 7940 nM on Mu-type opioid receptor [1]; 4.68 nM in experiment [4]; 3800 nM in experiment [5]; 3800 nM in experiment [2]; 7940 nM at Mu-type opioid receptor [6]; 4.68 nM in experiment [3].
Regarding `CCN1CC[C@]23c4c5ccc(O)c4O[C@@H]2c2[nH]c4ccccc4c2C[C@@]3(O)[C@H]1C5`, the inhibition constant (Ki) is 2510 nM on Mu-type opioid receptor [1], 3020 nM in experiment [2] and 5.01 nM in experiment [3].
`CCO[C@@]12Cc3c([nH]c4ccccc34)[C@]3(C)Oc4c(O)ccc5c4C31CCN(CC1CC1)[C@@H]2C5`: the Ki on Mu-type opioid receptor [1] is 38.9 nM; in experiment [2], 58.9 nM; in experiment [3], 0.794 nM.
As to `CCCCOc1cccc2c1[C@]13CCN(CC4CC4)[C@H](C2)[C@]1(OC)CCC(=O)C3`, the inhibition constant Ki on Mu-type opioid receptor [1] was 13.8 nM; in experiment [2], 263 nM; in experiment [3] it was 759 nM.
The matching figures for `COc1cccc2c1[C@]13CCN(CC4CC4)[C@H](C2)[C@]1(OC)CCC(=O)C3` [CYPRODIME]: 10.7 nM, 110 nM and 417 nM.
